In patent US8383139B2 (Bayer CropScience AG, priority 2008, dated 2013):
Where two headings read alike, the source gives them in different places.

Experiments:
[1] = system: Phakopsora pachyrhizi; assay: Phakopsora test (soybean)/protective; format: in vivo; details: 264 h, 500 ppm active substance, protective, evaluation 11 days after inoculation, read-out: degree of effectiveness
Experimental: • Solvent: 28.5 parts by weight of acetone • Emulsifier: 1.5 parts by weight of polyoxyethylene alkylphenyl ether (polyoxy-ethylene (16) tristearylphenyl ether)
To prepare a suitable active substance composition, 1 part by weight of active substance is mixed with the given amounts of solvent and emulsifier and the concentrate is diluted to the desired concentration using water.
For the testing of protective effectiveness, young plants are sprayed with the active substance composition at the application rate given. One day after the spraying, the plants are sprayed with an aqueous suspension of spores of Phakopsora pachyrhizi. The plants remain in a greenhouse at 20° C. and 80% relative humidity.
Evaluation is carried out 11 days after the inoculation. In this connection, 0% means a degree of effectiveness corresponding to that of the control, while a degree of effectiveness of 100% means that no infestation is observed.

[2] = system: Sphaerotheca fuliginea; assay: Sphaerotheca test (cucumber)/protective; format: in vivo; details: Podosphaera fuliginea, 168 h, 500 ppm active substance, protective, evaluation 7 days after inoculation, read-out: degree of effectiveness
Procedure, shortened: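 Young cucumber plants sprayed at the stated rate with active substance in DMF/alkylaryl polyglycol ether emulsifier diluted in water, then inoculated with Sphaerotheca fuliginea spores one day later. Kept in greenhouse at 70% relative humidity, 23° C.; scored 7 days post-inoculation as % efficacy (0% = untreated control, 100% = no infestation).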

[3] = system: Septoria tritici; assay: Septoria tritici test (wheat)/protective; format: in vivo; details: Zymoseptoria tritici, 504 h, 500 ppm active substance, protective, evaluation 21 days after inoculation, read-out: degree of effectiveness
Procedure, shortened: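 Young wheat plants sprayed with compound in dimethylacetamide/emulsifier-water, then inoculated with S. tritici spores once dry. Kept 48 h at 20 °C/100% RH, 60 h at 15 °C/100% RH, then greenhouse ~15 °C/80% RH. Scored 21 days post-inoculation as % efficacy versus untreated control.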

[4] = system: Puccinia triticina; assay: Puccinia triticina test (wheat)/protective; format: in vivo; details: 192 h, 500 ppm active substance, protective, evaluation 8 days after inoculation, read-out: degree of effectiveness
Procedure, shortened: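 Protective test: young wheat plants sprayed with compound (in N,N-dimethylacetamide/emulsifier, diluted in water) at the stated rate, dried, then inoculated with Puccinia triticina spores; 48 h at 20 °C, 100% RH, then greenhouse ~20 °C, ~80% RH. Efficacy scored 8 days post-inoculation, 0% = untreated control, 100% = no infestation.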

[5] = system: Alternaria solani; assay: Alternaria test (tomato)/protective; format: in vivo; details: 72 h, 100 ppm active substance, protective, evaluation 3 days after inoculation, read-out: degree of effectiveness
Experimental: • Solvents: 24.5 parts by weight of acetone • 24.5 parts by weight of dimethylacetamide • Emulsifier: 1 part by weight of alkylaryl polyglycol ether (polyoxyethylene (16) tristearylphenyl ether)
To prepare a suitable active substance composition, 1 part by weight of active substance is mixed with the given amounts of solvents and emulsifier and the concentrate is diluted to the desired concentration using water.
For the testing of protective effectiveness, young plants are sprayed with the active substance composition in the application rate given. After the spray coating has been dried on, the plants are inoculated with an aqueous suspension of spores of Alternaria solani. The plants are then placed in an incubation chamber at approximately 20° C. and 100% relative humidity.
Evaluation is carried out 3 days after the inoculation. In this connection, 0% means a degree of effectiveness corresponding to that of the control, while a degree of effectiveness of 100% means that no infestation is observed.

[6] = system: Uromyces appendiculatus; assay: Uromyces test (beans)/protective; format: in vivo; details: 240 h, 100 ppm active substance, protective, evaluation 10 days after inoculation, read-out: degree of effectiveness
Procedure, shortened: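 Young bean plants were sprayed with compound (acetone/dimethylacetamide/emulsifier concentrate diluted in water), dried, then inoculated with U. appendiculatus spores. They were held 1 day at ~20 °C, 100% RH, then kept in a greenhouse at ~21 °C, ~90% RH. Efficacy was scored at 10 days post-inoculation (0% = control, 100% = no infestation).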

[7] = log P by HPLC on reversed-phase columns (C 18), EEC Directive 79/831 Annex V.A8; format: physicochemical; details: reversed-phase C18 HPLC column
[8] = pH 2.3, [a] HPLC, acid region pH 2.3, 0.1% aqueous phosphoric acid and acetonitrile, read-out: log p
[9] = pH 2.3, pH 2.3, given in synthesis examples, read-out: log P (pH2.3)

SMILES	pest or weed control at 500 ppm [1] [%]	pest or weed control at 500 ppm [2] [%]	pest or weed control at 500 ppm [3] [%]	pest or weed control at 500 ppm [4] [%]	pest or weed control at 100 ppm [5] [%]	pest or weed control at 100 ppm [6] [%]	chromatographic logP [7, 8]	chromatographic logP [7, 9]
CCN(C)C=Nc1cc(C)c(Oc2nc(Cc3ccc(Cl)cc3)ns2)cc1C [Example 1, N′-(4-{[3-(4-chlorobenzyl)-1,2,4-thiadiazol-5-yl]oxy}-2,5-dimethylphenyl)-N-ethyl-N-methylimidoformamide]	≥ 80	≥ 70	≥ 70	≥ 70	≥ 70	≥ 70		
Cc1cc(Oc2nc(Cc3ccc(Cl)cc3)ns2)c(C)cc1N=CN1CCCCC1 [Example 2, 4-{[3-(4-chlorobenzyl)-1,2,4-thiadiazol-5-yl]oxy}-2,5-dimethyl-N-(piperidin-1-ylmethylidene)aniline]	≥ 80	≥ 70	≥ 70	≥ 70	≥ 70	≥ 70	2.09	
CCN(C)C=Nc1cc(Cl)c(Oc2nc(Cc3ccc(Cl)cc3)ns2)cc1C [Example 3, N′-(5-chloro-4-{[3-(4-chlorobenzyl)-1,2,4-thiadiazol-5-yl]oxy}-2-methylphenyl)-N-ethyl-N-methylimidoformamide]	≥ 80	≥ 70	≥ 70	≥ 70	≥ 70	≥ 70		
CCN(C)C=Nc1cc(C)c(Oc2nc(Cc3ccc(Cl)cc3Cl)ns2)cc1C [Example 11, N′-(4-{[3-(2,4-dichlorobenzyl)-1,2,4-thiadiazol-5-yl]oxy}-2,5-dimethylphenyl)-N-ethyl-N-methylimidoformamide]	≥ 80	≥ 70	≥ 70	≥ 70	≥ 70	≥ 70	2.19	
CCN(C)C=Nc1cc(C)c(Oc2nc(C(C)c3ccc(Cl)cc3)ns2)cc1C (stereo not shown) [Example 17, N′-[4-({3-[1-(4-chlorophenyl)ethyl]-1,2,4-thiadiazol-5-yl}oxy)-2,5-dimethylphenyl]-N-ethyl-N-methylimidoformamide]	≥ 80	≥ 70	≥ 70	≥ 70	≥ 70	≥ 70	2.34	
CCN(C)C=Nc1cc(C)c(Oc2nc(Cc3ccc(C)cc3[N+](=O)[O-])ns2)cc1C [Example 24, N′-(2,5-dimethyl-4-{[3-(4-methyl-2-nitrobenzyl)-1,2,4-thiadiazol-5-yl]oxy}phenyl)-N-ethyl-N-methylimidoformamide]	≥ 80	≥ 70	≥ 70	≥ 70	≥ 70	≥ 70	1.89	
CCN(C)C=Nc1cc(C)c(Oc2nc(C(C)(C)c3ccc(Cl)cc3)ns2)cc1C [Example 25, N′-[4-({3-[2-(4-chlorophenyl)propan-2-yl]-1,2,4-thiadiazol-5-yl}oxy)-2,5-dimethylphenyl]-N-ethyl-N-methylimidoformamide]	≥ 80	≥ 70	≥ 70	≥ 70	≥ 70	≥ 70	2.55	
CCN(C)C=Nc1cc(C)c(Oc2nc(Cc3ccc(Br)cc3)ns2)cc1C [Example 31, N′-(4-{[3-(4-bromobenzyl)-1,2,4-thiadiazol-5-yl]oxy}-2,5-dimethylphenyl)-N-ethyl-N-methylimidoformamide]	≥ 80	≥ 70	≥ 70	≥ 70	≥ 70	≥ 70	2.07	
Cc1cc(Oc2nc(Cc3ccc(Br)cc3)ns2)c(C)cc1N=CN(C)C(C)C [Example 32, N′-(4-{[3-(4-bromobenzyl)-1,2,4-thiadiazol-5-yl]oxy}-2,5-dimethylphenyl)-N-methyl-N-(propan-2-yl)imidoformamide]	≥ 80	≥ 70	≥ 70	≥ 70	≥ 70	≥ 70		
CCN(C)C=Nc1cc(C)c(Oc2nc(Cc3cccc(Cl)c3)ns2)cc1C [Example 35, N′-(4-{[3-(3-chlorobenzyl)-1,2,4-thiadiazol-5-yl]oxy}-2,5-dimethylphenyl)-N-ethyl-N-methylimidoformamide]	≥ 80	≥ 70	≥ 70	≥ 70	≥ 70	≥ 70	2.31	2.31
CCN(C)C=Nc1cc(C)c(Oc2nc(C3(c4ccc(Cl)cc4)CC3)ns2)cc1C [Example 37, N′-[4-({3-[1-(4-chlorophenyl)cyclopropyl]-1,2,4-thiadiazol-5-yl}oxy)-2,5-dimethylphenyl]-N-ethyl-N-methylimidoformamide]	≥ 80	≥ 70	≥ 70	≥ 70	≥ 70	≥ 70	2.21	2.28
CCN(C)C=Nc1cc(Cl)c(Oc2nc(C3(c4ccc(Cl)cc4)CC3)ns2)cc1C [Example 40, N′-[5-chloro-4-({3-[1-(4-chlorophenyl)cyclopropyl]-1,2,4-thiadiazol-5-yl}oxy)-2-methylphenyl]-N-ethyl-N-methylimidoformamide]	≥ 80	≥ 70	≥ 70	≥ 70	≥ 70	≥ 70	2.55	
CCN(C)C=Nc1cc(C)c(Oc2nc(Cc3ccccc3OC)ns2)cc1C [Example 49, N-ethyl-N′-(4-{[3-(2-methoxybenzyl)-1,2,4-thiadiazol-5-yl]oxy}-2,5-dimethylphenyl)-N-methylimidoformamide]	≥ 80	≥ 70	≥ 70	≥ 70	≥ 70	≥ 70	1.83	
CCN(C)C=Nc1cc(C)c(Oc2nc(Cc3ccc(F)cc3F)ns2)cc1C [Example 52, N′-(4-{[3-(2,4-difluorobenzyl)-1,2,4-thiadiazol-5-yl]oxy}-2,5-dimethylphenyl)-N-ethyl-N-methylimidoformamide]	≥ 80	≥ 70	≥ 70	≥ 70	≥ 70	≥ 70	1.94	
